Laboratory results from a melting point compilation (Tetko et al.).

melting point [°C]	Structure (SMILES)
180	CC(=O)Oc1ccc2c(c1)CCC1C2CCC2(C)C(=O)C(OC(C)=O)CC12 (stereo not given)
95	CNc1ccc(C(=O)OC)cc1
200	Cc1cc(C(F)(F)F)c(C#N)c(=S)[nH]1
64	O=[N+]([O-])c1ccc(Cl)nc1Cl
30	CCN(CC)C(=O)c1ccccc1
73	CCc1ccc(C#Cc2ccc(C)cc2)cc1
120 to 121	OCc1csc(-c2cccnc2)n1
190	O=C1Nc2c(Cl)cccc2C1=O
233	COc1ccc(Nc2[nH]c(=S)nnc2-c2ccccc2)cc1
174 to 177	COc1ccc(Oc2ccc(C(N)=NO)cc2[N+](=O)[O-])cc1
69	FC(F)(F)c1ccc2[nH]ccc2c1
214	N#C/C(=N\Nc1cc(Cl)c(Cl)cc1Cl)c1nc2ccccc2s1
126	COc1ccc(CC(=O)O)cc1OCc1ccccc1
40 to 43	NNc1c(Cl)cc(Cl)cc1C(F)(F)F
41	CN1C(=O)CC[C@H]1c1cccnc1
101	O=c1c2ccccc2cc2n1CCc1ccccc1-2
279	N=C(N)N1CCc2ccccc2C1
185 to 187	C[C@]12CCC(=O)C=C1CC[C@@H]1[C@@H]2CC[C@@]2(C)[C@H]1CC[C@]2(O)C#Cc1ccccc1
169	Cc1ccc(O)cn1
216 to 218	Cc1cc(C(=O)O)ccc1Cl
222 to 226	Nc1ncc(S(=O)(=O)c2ccc([N+](=O)[O-])cc2)s1
213	O=C(Nc1ccccc1)OCCc1ccc(CCOC(=O)Nc2ccccc2)cc1
108 to 110	CCOC(=O)c1csc(-c2cccc(Cl)c2Cl)n1

melting point [°C]	Structure (SMILES)
116 to 119	CC(=O)Nc1ccc(Br)c(C(F)(F)F)c1
168	O=Nc1ccc(O)c(N=O)c1O
125	Cc1ccc(C)n1-c1ccccc1C(=O)O
104	COc1ccc(CCC(=O)O)cc1
123	ON(Cc1ccccc1)Cc1ccccc1
238	CC1CC=CC2(O1)OC1CC(=O)OC1C1(O)C(=O)c3ccccc3C(=O)C21O (stereo not given)
84 to 86	O=CC1=C(Cl)c2cc(F)ccc2OC1
132 to 134	COC(=O)c1cnc(NN)nc1C(F)(F)F
148	Nc1ncnc2c1ncn2C1CC(O)C(COP(=O)(O)O)O1 (stereo not given)
248 to 252	CC(=O)O[C@H](c1ccccc1)C(O)(c1ccccc1)c1ccccc1
-27	CCCCCCCCC(=O)OCCCCC
87 to 90	O=C1N[C@H](Cc2ccccc2)CO1
130	NNC(=O)C(O)c1ccccc1 (stereo not given)
161 to 162	N#Cc1c(NC(=O)c2ccccc2Cl)sc2c1CCCC2
-92.9	CCCCCCCC(C)CC (stereo not given)
225 to 230	CC(=O)Nc1ccc(C=NNC(N)=S)cc1
165 to 167	Nc1n[nH]c(N)c1Cc1ccc(Cl)cc1
145	O=C(Nc1cccnc1)C(F)(F)C(F)(F)C(F)(F)C(F)(F)C(F)(F)C(F)(F)C(F)(F)C(F)(F)F
113 to 115	NC(=NO)c1ccc(OC(F)(F)F)cc1
130 to 132	NC(=O)C1CCN(C(=O)OCc2ccccc2)CC1
12	CCCCCCCC=CC(=O)O
67 to 69	Nc1ccc(Cn2cccn2)cc1
13.7	CCCCCCCCCCCCCC(CCCCCCCCCCCC)CCCCCCCCCCCC

melting point [°C]	Structure (SMILES)
162 to 164	O=C(O)C1CCN(c2ccc(C(F)(F)F)cn2)CC1
295	COc1cc(O)c2c(=O)c(O)c(-c3ccc(O)c(O)c3)oc2c1
170	O=C(O)c1cc(O)ccc1[N+](=O)[O-]
28	CCC(=O)c1ccco1
154 to 155	NC(=S)CCn1cccc(C(F)(F)F)c1=O
199 to 201	O=C(O)c1cnn2ccccc12
141 to 143	CC(=O)Nc1ccc(C(F)(F)F)cc1N
110 to 112	COc1ccc(OCC(O)CN)cc1 (stereo not given)
170 to 172	N#Cc1cccc(Cn2c(=O)oc3ccccc32)c1
158	NNC(=O)c1cccc(O)c1
34	O=[N+]([O-])c1ccc(OC(F)F)cc1
162	COc1cc(OC)nc(NC(=O)NS(=O)(=O)Nc2ccccc2C(=O)C2CC2)n1
25	CCN(CC)C(=O)c1cccnc1
57	C1=CCC(c2ccccc2)(c2ccccc2)C=C1
94 to 95	Cc1nc(Cl)c2c3c(sc2n1)CCCC3
87	CCCCOC(=O)C1=C(C)NC(C)=C(C(=O)OCCCC)C1c1ccco1
70	COC(=O)c1cc2ccccc2s1
60	N#Cc1ccc(Cl)cc1F
71 to 74	O=S(=O)(Cl)c1ccc(-c2nsc(Cl)n2)s1
63.3	CCCCCCCCCCCCCCCCCCCO
119	CC(=O)OC1CCC2(C)C(CCC3C4CC=C(C=Cc5ccccc5)C4(C)CCC32)C1 (stereo not given)
-78	FC(Cl)C(F)(F)Cl (stereo not given)
83	CC(=O)Oc1ccccc1C(=O)OC(=O)c1ccccc1OC(C)=O

melting point [°C]	Structure (SMILES)
168 to 169	Cn1c(S)nnc1CNC(=O)OC(C)(C)C
136 to 137	O=C(O)CCOc1ccc(Cl)cc1
83 to 84	Cc1cc2ccccc2nc1Cl
17.6	CC(=O)c1ccc(C)nc1
165 to 166	Cc1ccc(S(=O)(=O)OC2CCC3(C)C(CCC4C5CC(=O)CC5(C)CCC43)C2)cc1 (stereo not given)
230	O=C(Nc1ccc([N+](=O)[O-])cc1Cl)c1cc(Cl)ccc1O
186 to 187	Nc1ccc2c(c1)CS(=O)(=O)C2
35	Nc1c(F)cc(F)cc1F
28 to 31	CCOC(=O)CCCCCCCCCCCCC(=O)OCC
242	O=C(Nc1ccccc1)Nc1ccccc1
144	O=C(O)c1ccc(Cl)cc1[N+](=O)[O-]
105 to 108	COc1cscc1C(=O)O
266	O=[N+]([O-])c1ccc2c(c1)=NC(c1cccc(C3N=c4cc([N+](=O)[O-])ccc4=C3O)c1)C=2O (stereo not given)
-34	C=Cc1ccc(C)cc1
222	O=C1NC(=O)C(=Cc2ccccc2)N1
221	Cc1cc(O)c(C(C)C)cc1C1(c2cc(C(C)C)c(O)cc2C)OS(=O)(=O)c2ccccc21
102	S=C1SCN(Cc2ccccc2)CN1Cc1ccccc1
159	Cc1ccc(-n2c(-c3cccnc3)noc2=S)cc1
206	Brc1cc(Br)c(Oc2c(Br)cc(Br)c(Br)c2Br)c(Br)c1Br
169 to 171	CC(=O)Nc1ccc(C#N)cc1C(F)(F)F
28	BrCCI
149	O=Cc1cc([N+](=O)[O-])cc(Br)c1O
-47	ClC1(Cl)CCCCC1

melting point [°C]	Structure (SMILES)
136	O=P(N1CC1)(N1CC1)N(N=Cc1ccc(Cl)cc1)c1ccccc1
-50	CCCCCN
91 to 94	CCOC(OCC)C(N)=S
66	CC(C)(C)OC(=O)C1CC(=O)CN1C(=O)OC(C)(C)C (stereo not given)
27.4	CCCCCCCCCCCCCN
180	O=C(O)c1ccnc(N2CCOCC2)c1
249 to 251	CCOC(=O)C12C(c3ccccc3OP1(=O)OCC)C1(C(=O)OCC)C2c2ccccc2OP1(=O)OCC (stereo not given)
46	Brc1cccc2ncccc12
171	BrC(=Cc1ccccc1)c1ccc(Br)c2c(Br)cccc12
188 to 192	O=C(Oc1ccccc1)c1c2ccccc2nc2ccccc12
83 to 85	N#CCOc1ccc(C2=NCCS2)cc1
81	N#CCC(=O)c1cccc(Cl)c1
163 to 168	Cc1ccc(C(N)=S)cc1
234 to 236	O=C1CCC(c2ccc(N=Cc3ccccc3[N+](=O)[O-])cc2)=NN1
88 to 102	Cc1cc2ccccc2cc1CBr
195 to 197	COc1cc2c(cc1OC)C(c1ccccc1)N(C(C)=O)CC2 (stereo not given)
144	Cc1c(O)cccc1C(=O)O
49	OCc1cccc(OCc2ccccc2)c1
179 to 181	NNC(=O)c1cnn(-c2ccc(Cl)cc2)c1C(F)(F)F
127	CC(=O)Nc1cccc(C(C)=O)c1

Structure (SMILES)	melting point [°C]
CN(c1c(F)c(F)c(C#N)c(F)c1F)[N+](=O)[O-]	53
O=C(O)CCCOc1ccc(Cl)cc1Cl	118
C=CCC1(c2ccccc2)C(=O)NC(=O)NC1=O	156
CCc1cccc(C)c1N	-25
Cc1ccc(Cl)c([N+](=O)[O-])c1	7
CNC1=C(c2cccc(C(F)(F)F)c2)C(=O)C(c2ccccc2)O1 (stereo not given)	148
CC(=O)Oc1ccc(C#N)cc1	57
CC(=O)OC12COC1CC(O)C1(C)C(=O)C(O)C3=C(C)C(O)CC(O)(C(OC(=O)c4ccccc4)C21)C3(C)C (stereo not given)	231 to 236
c1ccc(N2CCNCC2)cc1	18.8
O=C(O)/C=C/Cl	82
CC(=O)c1cc2c(cc1C)C(C)(C)C(C)CC2(C)C (stereo not given)	54.5
CC(C)OC(=O)Nc1cccc(Cl)c1	42
CCOP(=S)(OCC)SCn1nnc2ccccc2c1=O	53
Cc1c(C)c(N)c(C)c(C)c1N	150 to 153
CC(O)C#N (stereo not given)	-40
ClCc1csc(-c2cccs2)n1	52 to 56
Nc1cc(N)nc(N)n1	250
COP(=S)(OC)SCN1C(=O)c2ccccc2C1=O	72
